{"source": "paper PMC9199891", "about": "(Clinical and Translational Science, 2022)", "assay": "Single-dose pharmacokinetics of omeprazole", "type": "in vivo, healthy Chinese volunteers", "settings": "for AUC0-t / AUC0-∞ / Cmax: 20 mg single oral dose, mean ± SD; for Tmax: human, plasma, oral, 20 mg", "data": [{"smiles": "COc1ccc2[nH]c([S+]([O-])Cc3ncc(C)c(OC)c3C)nc2c1", "note": "(centres unmarked) [omeprazole]", "values": [{"measurement": "AUC0-t", "setting": "CYP2C19 *1/*1 (n = 263)", "value": "466.2 ± 493.2", "unit": "ng·h/mL"}, {"measurement": "AUC0-∞", "setting": "CYP2C19 *1/*1 (n = 263)", "value": "499.3 ± 498.4", "unit": "ng·h/mL"}, {"measurement": "Cmax", "setting": "CYP2C19 *1/*1 (n = 263)", "value": "309 ± 227", "unit": "ng/mL"}, {"measurement": "AUC0-t", "setting": "CYP2C19 *1/*2 (n = 241)", "value": "766.4 ± 529.4", "unit": "ng·h/mL"}, {"measurement": "AUC0-∞", "setting": "CYP2C19 *1/*2 (n = 241)", "value": "817.8 ± 524.4", "unit": "ng·h/mL"}, {"measurement": "Cmax", "setting": "CYP2C19 *1/*2 (n = 241)", "value": "449 ± 309", "unit": "ng/mL"}, {"measurement": "AUC0-t", "setting": "CYP2C19 *1/*3 (n = 48)", "value": "707.8 ± 490.3", "unit": "ng·h/mL"}, {"measurement": "AUC0-∞", "setting": "CYP2C19 *1/*3 (n = 48)", "value": "808.0 ± 545.9", "unit": "ng·h/mL"}, {"measurement": "Cmax", "setting": "CYP2C19 *1/*3 (n = 48)", "value": "440 ± 390", "unit": "ng/mL"}, {"measurement": "AUC0-t", "setting": "CYP2C19 *1/*17 (n = 6)", "value": "363.8 ± 232.6", "unit": "ng·h/mL"}, {"measurement": "AUC0-∞", "setting": "CYP2C19 *1/*17 (n = 6)", "value": "366.5 ± 233.4", "unit": "ng·h/mL"}, {"measurement": "AUC0-t", "setting": "CYP2C19 *2/*2 (n = 74)", "value": "3379 ± 1421", "unit": "ng·h/mL"}, {"measurement": "AUC0-∞", "setting": "CYP2C19 *2/*2 (n = 74)", "value": "3790 ± 1311", "unit": "ng·h/mL"}, {"measurement": "Cmax", "setting": "CYP2C19 *2/*2 (n = 74)", "value": "1130 ± 992", "unit": "ng/mL"}, {"measurement": "AUC0-t", "setting": "CYP2C19 *2/*3 (n = 17)", "value": "3908 ± 1560", "unit": "ng·h/mL"}, {"measurement": "AUC0-∞", "setting": "CYP2C19 *2/*3 (n = 17)", "value": "4221 ± 1453", "unit": "ng·h/mL"}, {"measurement": "Cmax", "setting": "CYP2C19 *2/*3 (n = 17)", "value": "1040 ± 550", "unit": "ng/mL"}, {"measurement": "AUC0-t", "setting": "CYP2C19 *2/*17 (n = 2)", "value": "507.3 ± 150.3", "unit": "ng·h/mL"}, {"measurement": "AUC0-∞", "setting": "CYP2C19 *2/*17 (n = 2)", "value": "693.0 ± 109.6", "unit": "ng·h/mL"}, {"measurement": "Cmax", "setting": "CYP2C19 *2/*17 (n = 2)", "value": "530 ± 344", "unit": "ng/mL"}, {"measurement": "AUC0-t", "setting": "CYP2C19 *3/*3 (n = 2)", "value": "3913 ± 493.0", "unit": "ng·h/mL"}, {"measurement": "AUC0-∞", "setting": "CYP2C19 *3/*3 (n = 2)", "value": "4444 ± 793.4", "unit": "ng·h/mL"}, {"measurement": "Cmax", "setting": "CYP2C19 *3/*3 (n = 2)", "value": "884 ± 575", "unit": "ng/mL"}, {"measurement": "AUC0-t", "setting": "CYP2C19 *3/*17 (n = 3)", "value": "544.8 ± 14.52", "unit": "ng·h/mL"}, {"measurement": "AUC0-∞", "setting": "CYP2C19 *3/*17 (n = 3)", "value": "547.0 ± 14.47", "unit": "ng·h/mL"}, {"measurement": "Cmax", "setting": "CYP2C19 phenotype IM (n = 294)", "value": "447 ± 322", "unit": "ng/mL"}, {"measurement": "AUC0-t", "setting": "CYP2C19 phenotype NM (n = 263)", "value": "466.16 ± 493.21", "unit": "ng·h/mL"}, {"measurement": "Cmax", "setting": "CYP2C19 phenotype NM (n = 263)", "value": "308 ± 227", "unit": "ng/mL"}, {"measurement": "AUC0-t", "setting": "CYP2C19 phenotype PM (n = 93)", "value": "3487.32 ± 1440.13", "unit": "ng·h/mL"}, {"measurement": "AUC0-∞", "setting": "CYP2C19 phenotype PM (n = 93)", "value": "3883.09 ± 1331.02", "unit": "ng·h/mL"}, {"measurement": "Cmax", "setting": "CYP2C19 phenotype PM (n = 93)", "value": "1110 ± 916", "unit": "ng/mL"}, {"measurement": "AUC0-t", "setting": "CYP2C19 phenotype RM (n = 6)", "value": "363.77 ± 232.56", "unit": "ng·h/mL"}, {"measurement": "Cmax increase in PM", "setting": "PM versus IM", "value": 2.5, "unit": "fold"}, {"measurement": "Tmax", "setting": "after administration in all groups (four phenotype groups)", "value": "3.89 to 4.45", "unit": "h"}, {"measurement": "Tmax", "setting": "after administration in all subjects (nine diplotype groups)", "value": "1.33 to 4.6", "unit": "h"}]}]}
